Test results as given in patent US20260250318A1, “COMPOSITIONS AND METHODS FOR CROSSING THE BLOOD BRAIN BARRIER” (VOYAGER THERAPEUTICS, INC., priority 2022, published 2026).

System: brain
Test: Maturation of TTM-001 capsid, NGS enrichment in brain of CD-1 Outbred mice
Format: in vivo
Details: NGS fold-enrichment of TTM-001 matured AAV capsid variants in the brain of CD-1 Outbred mice; intravenous 1.0×10^12 VG/dose; 14 days in life; RNA; relative to non-matured TTM-001 control
In short: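 Brain enrichment read by NGS after RNA extraction and RT-PCR, expressed as fold ratio over the matching parental capsid (TTM-001 or TTM-002). Libraries, mutated around loop IV positions 449/450–466, were injected intravenously (tail vein, 1.0×10^12 VG/dose) into three female CD-1 mice; brains harvested at 14 days.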

Sequence | Fold enrichment over TTM-001 [fold]
KTINGLLSPHRKAQNQQT | 3.026
KTINGSGSPHSKCLSQQT | 2.052
KTINGSGSPHSKGRIQQT | 2.061
KTINGSGSPHSKAQYCLT | 2.628
KTINGSGSPHSKARNGQT | 2.482
KTINGSGSPHSKARLAQT | 2.007
KTINGSGSPHGLWQNQQT | 2.181
KTINGSGSPHSKAQNRRS | 2.613
KTINGSTSPHLFAQNQQT (peptide inserted in AAV capsid) | 2.041
KTINGSGSPHSKQSRQQT | 2.156
KTINGSGSPHSKAQHLRT | 2.741
KTINGSGSPHSKAQLSKT | 2.035
KTINGSGSPHSKARYSQT | 2.369
KTINGSGSPHSKAFARQT | 3.082
KTINGVVSPHRKAQNQQT | 3.106
KTINGFRSPHLKAQNQQT | 2.063
KTINGSGSPHSKAQLTLT | 2.641
KTINGSGSPHSKSHRQQT | 2.145
KTINGSGSPHSKGIRQQT | 2.497
KTINGKRSPHSKAQNQQT | 3.611
KTINGSGSPHTWTQNQQT | 2.045
KTINGRYSPHSKAQNQQT | 2.080
KTINGRISPHLKAQNQQT | 2.028

Sequence | Fold enrichment over TTM-001 [fold]
KTINGSGSPHTLWQNQQT | 2.168
KTINGSGSPHSKRLPQQT | 2.279
KTINGSGSPHSKALRSQT | 2.648
KTINGMCSPHSKAQNQQT | 2.006
KTINGSGSPHSKFLFQQT | 3.173
KTINGSRSPHRRAQNQQT (peptide inserted in AAV capsid) | 2.615
KTINGSGSPHSKARMGQT | 2.564
KTINGSGSPHSLFLNQQT | 3.358
KTINGTLSPHRKAQNQQT | 2.307
KTINGSSSPHCTAQNQQT (peptide inserted in AAV capsid) | 5.607
KTINGSGSPHWSLQNQQT | 2.389
KTINGSGSPHSKPSRQQT | 2.438
KTINGSGSPHSKAWLMQT | 2.015
KTINGSGSPHSLRRNQQT | 4.985
KTINGSRSPHFKAQNQQT (peptide inserted in AAV capsid) | 2.277
KTINGVLSPHRKAQNQQT | 2.868
KTINGSGSPHSKAQFSLT | 2.000
KTINGSGSPHSRLKNQQT | 3.156
KTINGSGSPHSKARGVQT | 2.181
KTINGSLSPHLCAQNQQT | 2.775
KTINGSGSPHSKAQCLFT | 2.421
KRLFGSGSPHSKAQNQQT | 2.330
KTINGSCSPHLAAQNQQT | 2.134

Sequence | Fold enrichment over TTM-001 [fold]
KTINGSSSPHLWAQNQQT (peptide inserted in AAV capsid) | 2.605
KTINGSGSPHSKRSWQQT | 3.838
KTINGSGSPHSKRLYQQT | 2.721
KTINRRLSPHSKAQNQQT | 2.678
KTINGSGSPHSKAQILVT | 2.009
KTINGSGSPHSKAHRLQT | 2.603
KTINTRPSPHSKAQNQQT | 2.011
KAFNGSGSPHSKAPNQQT | 2.088
KTINGSGSPHSKACSAQT | 2.754
KTINGSGSPHLYMQNQQT | 2.615
KTINGSGSPHSKAKHLQT | 2.870
KTINGFSSPHRKAQNQQT | 2.276
KTINGSGSPHSKASKNQT | 2.171
KTINGSGSPHSKWSLQQT | 2.453
KTINGSGSPHCLAQNQQT | 4.847
KTINGSSSPHWLAQNQQT (peptide inserted in AAV capsid) | 2.490
KTINGSGSPHSFRLNQQT | 2.158
KTINGSGSPHLYGQNQQT | 2.277
KTINGSGSPHSKAQNLRR | 2.231
KTINGSGSPHSKRVLQQT | 2.035
KTINGSGSPHCVAQNQQT | 2.080
KTINGSGSPHSTVWNQQT | 2.196
KTINGSGSPHSKAQLVVT | 3.654

Sequence | Fold enrichment over TTM-001 [fold]
KTINGSGSPHSFLRNQQT | 3.384
KTINGSLSPHCLAQNQQT | 2.577
KTINGSRSPHRLAQNQQT (peptide inserted in AAV capsid) | 2.698
KTINGSGSPHSKAQLVLT | 2.508
KEVMGSGSPHSKAQNQQT | 2.047
KTINGSGSPHSKAVRQQT | 2.052
KTINGSGSPHSKLFRQQT | 3.806
KTINGSPSPHLFAQNQQT | 2.238
KTINGSGSPHSKLCSQQT | 2.989
KTINGSGSPHSFVRNQQT | 2.110
KTINGSGSPHSKALRFQT | 3.894
KTINGSGSPHSMFPNQQT | 2.419
KTINGSGSPHSKRVGQQT | 2.190
KTINGSGSPHSKRAAQQT | 3.838
KTINGSGSPHSRGRNQQT | 4.961
KGHEGSGSPHSKAQNQQT | 2.151
KTINGRRSPHTKAQNQQT | 2.069
KTINGKTSPHGKAQNQQT | 2.717
KTINGSGSPHSKALRYQT | 3.076
KTINGSGSPHSFITNQQT | 2.868
KTINGSGSPHSKAQNTRR | 2.013
KTINGSGSPHSKVPKQQT | 2.924
KTINGSGSPHSKAQRRST | 2.993

Sequence | Fold enrichment over TTM-001 [fold]
KTINGSGSPHSKLSKQQT | 2.482
KTINGSGSPHSKSNKQQT | 2.006
KTINGSGSPHSCLLNQQT | 3.127
KTINGSGSPHSKAQVTLT | 2.179
KTINGSGSPHSKARGYQT | 2.492
KTINGSGSPHSLFRNQQT | 4.037
KTINGSGSPHSKAQSRRT | 3.372
KTINGSGSPHSKAQRLRT | 4.322
KTINGSGSPHSKAQRSRT | 3.585
KTINTIESPHSKAQNQQT | 2.331
KTINGSGSPHSKAQLTVT | 4.026
KTINGSGSPHSYLLNQQT | 2.147
KTINGSGSPHTKWQNQQT | 2.222
KTINGSGSPHTWSQNQQT | 2.011
KTINGSWSPHLVAQNQQT (peptide inserted in AAV capsid) | 2.084
KTINGSGSPHSKWPGQQT | 2.477
KTINGSGSPHSKAGRGQT | 2.058
KTINGSGSPHRRLQNQQT | 2.030
KGLVGSGSPHSKAQNQQT | 2.412
KTINGSGSPHFLNQNQQT | 2.359
KTINGSGSPHSKLRLQQT | 2.065
KTINGILSPHRKAQNQQT | 2.475
KTINGSGSPHPLFQNQQT | 2.233
